Test results reported in patent US11229683B2, “Hematopoietic growth factor proteins and analogs thereof and angiotensin converting enzyme inhibitors for treatment of radiation exposure” (priority 2015, dated 2022).
Where two headings read alike, the source gives them in different places. Marks after values point to notes of the source that are not given here.

Experiments:
7 Gy-irradiated rats = conditions: 7 Gy rats; captopril 0.3 g/L in drinking water from day −7 to Day 0; cited from earlier work
7.5 Gy-irradiated mice = conditions: cited from earlier work
8.25 Gy-irradiated mice = conditions: cited from earlier work
lethally irradiated rats = conditions: 13 Gy leg-out TBI, TC sc day 1, Lisinopril in drinking water Day 7 to Day 150, 12 rats/group
Description: Female WAG/RijCmcr rats were irradiated with 13 Gy at 12 weeks of age when they weighed ˜150-170 gm. Briefly, animals were immobilized in a plexiglass jig to avoid anesthetic. One hind leg was shielded with a one-quarter inch thick lead block. Shielding one leg from radiation exposure is sufficient to prevent death from hematopoietic failure during the following 40 days. […] The x-ray system was operated at 320 kVp and 13 mAs with a half value layer of 1.4 mm Cu. During the irradiation, each rat was confined in a separate chamber in a plastic jig, which allowed irradiation of 2 rats simultaneously. The chambers were placed on a plane perpendicular to the beam direction with distance from source to the midline of rats to be set at 33.5 cm. Collimator jaws were used to define a radiation field large enough to cover both chambers with adequate margin (at least 2 cm). Irradiated rats were given supportive care between days 2 to 14 post-TBI to mitigate acute gastrointestinal injury. This supportive care consisted of sc injections of saline (40 mL/kg/day) from days 3 to 7 post-TBI and the antibiotic enrofloxacin (10 mg/kg/day), given orally in the drinking water from days 2 to 14 post-TBI.
This study comprised four test groups, each consisting of 12 rats (Table 7). Rats received a single sc injection of vehicle solution (10 mM sodium phosphate, 4% mannitol, 1% sucrose pH 6.2) or an HGF triple combination (TC) at 24+4/−0 hr post-irradiation. […] Morbidity and survival of the animals were measured over time. Rats were euthanized if their body condition reached IACUC criteria for euthanasia or if their blood urea nitrogen (BUN) was measured at or above 120 mg/mL, which is an indicator if severe kidney damage. Euthanized animals are classified as non-survivors. Death prior to day 40 in this model typically occurs as a result of hematopoietic failure (H-ARS) or gastrointestinal injury (GI-ARS). Death between days 40 and 90 typically occurs as a result of lung damage, particularly pneumonitis. Death between days 90 and 150 typically occurs as a result of kidney damage (nephropathy). Morbidity at Day 40, 90 and 150 were chosen as representative times for death due to H-ARS, lung damage, and a combination of lung damage and kidney damage, respectively.

irradiated rats [1] = test: Rat 13 Gy leg-out TBI model, renal injury by blood urea nitrogen (BUN); type: in vivo; conditions: surviving animals, TC day 1, Lisinopril Day 7 to Day 150
Method: Euthanized animals are classified as non-survivors.
Blood urea nitrogen (BUN) measurements were made as a separate measure of kidney damage in surviving animals on Days 90, 120 and 150 (Table 8). BUN measurements are a commonly used measure of kidney function, with higher BUN numbers indicating greater kidney damage. Normal rat BUN measurements for non-irradiated rats are in the 17-22 mg/dL range. Rats were euthanized if BUN measurements were at or above 120 mg/dL.

irradiated rats [2] = test: Rat 13 Gy leg-out TBI model, transthoracic echocardiography on day 50, Example 8; type: in vivo
Method: Non-irradiated rats (0 Gy) served as controls. On day 50, the rats were anesthetized with isoflurane (2%) and transthoracic echocardiography was performed. Measurements were obtained by an investigator who was blinded to the treatment groups. Animals were studied in the left lateral decubitus position and data was recorded with a Vivid 7 echocardiographic system (General Electric, Waukesha, Wis.).

plasma ACE activity = target: T1, plasma ACE activity (Mus musculus, UniProt P09470); conditions: all 3 doses: 10, 30, or 90 mg/kg sc twice per day; cited from earlier work
T1 construct: host or cells: plasma of perindopril-treated mice (endogenous enzyme)
T1 sequence (P09470 35-1237 limits assumed): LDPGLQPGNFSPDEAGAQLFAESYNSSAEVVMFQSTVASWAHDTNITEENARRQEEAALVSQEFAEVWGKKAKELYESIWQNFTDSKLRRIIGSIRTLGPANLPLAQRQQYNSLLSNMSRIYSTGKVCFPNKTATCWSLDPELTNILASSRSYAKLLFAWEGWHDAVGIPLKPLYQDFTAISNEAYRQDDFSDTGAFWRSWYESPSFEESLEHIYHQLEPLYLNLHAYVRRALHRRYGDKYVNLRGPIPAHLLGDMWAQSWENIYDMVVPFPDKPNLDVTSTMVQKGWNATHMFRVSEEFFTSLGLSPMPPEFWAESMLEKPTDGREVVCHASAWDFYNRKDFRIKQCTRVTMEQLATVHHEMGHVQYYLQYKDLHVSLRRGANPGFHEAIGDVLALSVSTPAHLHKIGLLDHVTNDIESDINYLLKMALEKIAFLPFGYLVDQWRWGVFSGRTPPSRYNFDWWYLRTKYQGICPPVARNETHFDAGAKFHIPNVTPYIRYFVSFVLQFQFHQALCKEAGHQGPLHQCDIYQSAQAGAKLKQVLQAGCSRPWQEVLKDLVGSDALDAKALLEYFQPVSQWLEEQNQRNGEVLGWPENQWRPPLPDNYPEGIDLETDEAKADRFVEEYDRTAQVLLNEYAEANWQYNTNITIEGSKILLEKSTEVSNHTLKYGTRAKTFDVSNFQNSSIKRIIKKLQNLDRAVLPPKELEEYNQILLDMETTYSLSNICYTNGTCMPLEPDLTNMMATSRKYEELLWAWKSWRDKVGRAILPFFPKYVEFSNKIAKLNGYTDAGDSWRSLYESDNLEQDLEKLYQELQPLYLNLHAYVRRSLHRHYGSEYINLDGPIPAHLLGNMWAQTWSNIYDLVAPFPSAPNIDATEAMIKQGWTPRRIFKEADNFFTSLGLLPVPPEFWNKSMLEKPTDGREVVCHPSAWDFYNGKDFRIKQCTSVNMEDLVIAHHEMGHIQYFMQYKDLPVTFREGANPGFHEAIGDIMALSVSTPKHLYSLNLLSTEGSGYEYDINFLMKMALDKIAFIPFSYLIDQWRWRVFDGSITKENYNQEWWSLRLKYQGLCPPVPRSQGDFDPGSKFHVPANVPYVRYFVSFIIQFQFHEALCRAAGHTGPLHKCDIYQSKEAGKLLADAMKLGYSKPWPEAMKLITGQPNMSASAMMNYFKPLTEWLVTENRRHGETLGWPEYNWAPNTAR

8.3 Gy irradiated mice = conditions: cited from earlier work; for 48-day survival vs water: 8.3 Gy
irradiated mice = test: Mouse ARS survival assay, PEG-muGM-CSF, 853 or 872 cGy, Example 5; type: in vivo; conditions: for % 30-d survival: listed as PEG-muGM-CSF, 1 mg/kg; for # survivors/total mice: 30 days
Method: At the higher 872 cGy radiation dose, 70% of mice treated once with PEG-muGM-CSF at 24 h post-TBI were still alive at 30 days, compared to 10% of vehicle-treated mice.

LD65/30 irradiated mice = test: Mouse ARS survival assay, LD65/30 (872 cGy), Example 10; type: in vivo; conditions: single sc injection 24 h post-irradiation
Method: The efficacy of three individual HGFs and all possible combinations of the 3 proteins to increase 30 day survival of lethally irradiated mice was tested at an LD65/30 radiation dose (a dose of radiation expected to cause death to 65% of an exposed population within 30 days). This experiment was performed as described in Example 1 except that the radiation dose used was 872 cGy and there were 20 mice per test group (10 males/10 females). The three HGFs were the same ones used in Example 1.

[3] = test system: LD65/30 irradiated one year old mice; test: Mouse ARS survival assay in one year old mice, 10 Gy (LD65/30), Example 4; type: in vivo; conditions: single sc injection 24 h post-TBI
Description: One year old mice are a model for geriatric humans, which often respond differently to radiation exposure and drugs. One year old mice were exposed to different doses of radiation to construct a radiation dose response curve. […] The LD50/30 for one year old mice was 959 cGy, compared to 853 cGy for 12 week old mice. […] Other study details were as described in Example 1 and in Plett et al. (Plett, P A, et al. (2012) Establishing a murine model of the Hematopoietic Syndrome of the Acute Radiation Syndrome. Health Physics 103: 343-355; Plett, P. A., et al. (2014) PEGylated G-CSF (BBT-015), GM-CSF (BBT-007), and IL-11 (BBT-059) analogs enhance survival and hematopoietic cell recovery in a mouse model of the Hematopoietic Syndrome of the Acute Radiation Syndrome. Health Physics Journal 106: 7-20). Mice received one sc injection of the individual test proteins or all possible combinations of the test proteins 24+4/−0 hours post-TBI. Doses of the drugs administered were 1 mg/kg for PEG-G-CSF, 1 mg/kg for PEG-murine GM-CSF, and 0.3 mg/kg for PEG-IL-11.

LD95/30 irradiated mice = test: Mouse ARS survival assay, LD95/30 (927 cGy), Example 1; type: in vivo; conditions: LD95/30 (927 cGy) TBI, single sc injection 24 h post-irradiation; for % 30-d survival: PEG IL-11 0.3 mg/kg, PEG-G-CSF 1 mg/kg, PEG muGM-CSF 1 mg/kg, 40 mice/group
Method: The efficacy of three individual HGFs and all possible combinations of the 3 proteins to increase 30 day survival of lethally irradiated mice was tested at an LD95/30 radiation dose (a dose of radiation expected to cause death to 95% of an exposed population within 30 days). […] Male and female mice (Mus musculus, C57BL/6 strain), aged 10-12 weeks upon study initiation, were used for these studies. There were 40 animals per treatment group, 50% males and 50% females. A dose of radiation equal to the LD95/30 was delivered as a single uniform total body dose (TBD) of gamma radiation from a ^137Cs radiation source (GammaCell 40; Nordion International, Kanata, Ontario, Canada) at an exposure rate of 98.575-100.3±5.01 cGy/minute. Pilot studies determined the LD95/30 dose of radiation to be 927 cGy. […] Each group of mice irradiated together in the same irradiation pie was roughly divided among all groups to ensure that each group received the same irradiation exposure conditions. After irradiation mice were randomized to one of the Test Article or Control Article groups. Mice were provided acidified water (pH 2.0-3.0) in bottles and fed certified commercial extruded laboratory animal chow (HARLAN 2018SXC) throughout the study. On day 4 post-exposure, mice were provided acidified autoclaved water in bottles and also in wetted chow (HARLAN 2018SXC) in a petri dish set in the bottom of the cage. Mice were monitored for survival once per day until signs of early euthanasia appear, then twice per day until day 30. Mice meeting predetermined euthanasia criteria were euthanized.
Complete Blood Cell Counts (CBCs) with differential and peripheral smears were performed at baseline (pre-irradiation) and on days 10, 20, 25, and 30 post-TBI. Two randomly selected mice/group in different cages were bled on day −3 to day −1 prior to TBI for a total of 12 baseline CBCs. Four randomly selected mice/group were bled on days 10, 20, 25, and 30 post-TBI. When possible, the same number of males and females in each group and in separate cages were selected for bleeding. […]

lethally irradiated mice = conditions: single sc injection; cited from earlier work
[4] = Lisinopril Day 7 to Day 50, mean ± SD, 8 rats
[5] = sc 30 mg/kg twice per day for 4 days starting 48 hours before irradiation
[6] = 853 cGy, 1 mg/kg single sc at 24 h post-TBI
[7] = 872 cGy, 1 mg/kg single sc at 24 h post-TBI

C[C@H](CS)C(=O)N1CCC[C@H]1C(=O)O [Captopril]
30-day survival (7 Gy-irradiated rats): 24% | 30-day survival (7.5 Gy-irradiated mice; captopril 0.55 g/L in drinking water from day −7 until Day 0): 0% | 30-day survival (7.5 Gy-irradiated mice; captopril from day 0 (1 hour post-TBI) until Day 30 post-TBI): 100% | 30-day survival (7.5 Gy-irradiated mice; captopril from day 1 (24 h) post-TBI until Day 7 post-TBI): 85% | 30-day survival (7.5 Gy-irradiated mice; captopril from day −7 prior to TBI until Day 30 post-TBI): 15% | 30-day survival (8.25 Gy-irradiated mice; captopril 0.55 g/L in drinking water from day 1 to day 30 post-TBI, genestein (if given) 200 mg/kg sc 24 h pre-TBI): 45% | 30-day survival (8.25 Gy-irradiated mice; captopril from day 0 (1 h post-TBI) to day 30, genestein (if given) 200 mg/kg sc 24 h pre-TBI): 55%

NCCCC[C@H](N[C@@H](CCc1ccccc1)C(=O)O)C(=O)N1CCC[C@H]1C(=O)O [Lisinopril]
Survival (%) Day 40 (lethally irradiated rats): 100% | Survival (%) Day 150 (lethally irradiated rats): 92% | Survival (%) Day 90 (lethally irradiated rats; listed as Vehicle + Lisinopril): 92% | Survival (%) Day 90 (lethally irradiated rats; listed as Vehicle plus Lisinopril): 100% | BUN Day 120, median (20th-80th percentile) (irradiated rats [1]): 23 (20-24) * mg/dL | BUN Day 150, median (20th-80th percentile) (irradiated rats [1]): 25 (22-27) ** mg/dL | Cardiac Output (irradiated rats [2]; [4]): 170.1 ± 36.4 mL/min | End Systolic Volume (irradiated rats [2]; [4]): 0.125 ± 0.04 mL | End-Diastolic Volume (irradiated rats [2]; [4]): 0.585 ± 0.08 mL | Left Ventricle Internal Diameter systole (irradiated rats [2]; [4]): 0.364 ± 0.03 cm | Left Ventricle Mass (irradiated rats [2]; [4]): 0.919 ± 0.04 grams | Left Ventricle Posterior Wall diastole (irradiated rats [2]; [4]): 0.109 ± 0.01 cm | Left Ventricular Internal Dimension (diastole) (irradiated rats [2]; [4]): 0.57 ± 0.17 cm | Stroke volume (irradiated rats [2]; [4]): 0.460 ± 0.06 mL | radiation-induced changes to heart parameters (irradiated rats [2]; Lisinopril on days 7 to 50): prevented or reduced radiation-induced changes

CCC[C@H](N[C@@H](C)C(=O)N1[C@H](C(=O)O)C[C@@H]2CCCC[C@@H]21)C(=O)OCC [perindopril]
inhibition of plasma ACE activity (plasma ACE activity): 100% | 48-day survival vs water (8.3 Gy irradiated mice; sc 10 mg/kg twice per day for 4 days starting 48 hours before irradiation): did not significantly improve | 48-day survival vs water (8.3 Gy irradiated mice; [5]): did significantly improve survival | 48-day survival vs water (8.3 Gy irradiated mice; sc 90 mg/kg twice per day for 4 days starting 48 hours before irradiation): did significantly improve survival | 30-day survival versus water (8.3 Gy irradiated mice; [5]): improved 30-day survival

B1: PEG GM-CSF: the murine BBT-007 GM-CSF homolog T3C modified with a 40 kDa-PEG (protein, UniProt P01587 18-141, looked up, variant T3C)
Granulocyte-macrophage …: APCRSPITVTRPWKHVEAIKEALNLLDDMPVTLNEEVEVVSNEFSFKKLTCVQTRLKIFEQGLRGNFTKLKGALNMTASYYQTYCPPTPETDCETQVTTYADFIDSLKTFLTDIPFECKKPGQK
modifications: 40 kDa PEG
notes: the murine BBT-007 GM-CSF homolog T3C modified with a 40 kDa-PEG
% of mice that survived 30 days, pooled data from the two radiation doses (irradiated mice; 853 and 872 cGy pooled, 1 mg/kg single sc at 24 h post-TBI): 77.5% | % 30-d survival (irradiated mice; [6]): 85% | % 30-d survival (irradiated mice; [7]): 70% | # survivors/total mice (irradiated mice; [6]): 17/20 | # survivors/total mice (irradiated mice; [7]): 14/20 | hematopoietic recovery (CBC) vs vehicle (irradiated mice; day 20 post-TBI, 853 and 872 cGy): accelerated hematopoietic recovery | # survivors/total mice (LD65/30 irradiated mice; 30 days): 14/20 | % 30-d survival (LD65/30 irradiated mice; PEG IL-11 0.3 mg/kg, PEG-G-CSF 1 mg/kg, PEG muGM-CSF 1 mg/kg, 20 mice/group): 70% | # survivors/total mice ([3]; 30 days): 11/20 | % 30-d survival ([3]; PEG IL-11 0.3 mg/kg, PEG-G-CSF 1 mg/kg, PEG muGM-CSF 1 mg/kg): 55% | # survivors/total mice (LD95/30 irradiated mice; 30 days): 13/40 | % 30-d survival (LD95/30 irradiated mice): 32.5% | % 30-d survival (LD95/30 irradiated mice; listed as PEG-GM-CSF): 33%

B2: muGM-CSF: non-long-acting murine GM-CSF (protein, UniProt P01587 18-141, looked up)
Granulocyte-macrophage …: APTRSPITVTRPWKHVEAIKEALNLLDDMPVTLNEEVEVVSNEFSFKKLTCVQTRLKIFEQGLRGNFTKLKGALNMTASYYQTYCPPTPETDCETQVTTYADFIDSLKTFLTDIPFECKKPGQK
30-day survival of lethally irradiated mice (lethally irradiated mice): does not improve 30-day survival
